The values that follow come from ChEMBL document CHEMBL3991601, “The target landscape of clinical kinase drugs” (Science, 2017).

Active and inactive are the calls of the source.

The target of assay [1] is High affinity nerve growth factor receptor (Homo sapiens, UniProt P04629).
The target of assay [2] is T1, Ephrin type-A receptor 1 (Homo sapiens, UniProt P21709).
T1 sequence (P21709 whole entry): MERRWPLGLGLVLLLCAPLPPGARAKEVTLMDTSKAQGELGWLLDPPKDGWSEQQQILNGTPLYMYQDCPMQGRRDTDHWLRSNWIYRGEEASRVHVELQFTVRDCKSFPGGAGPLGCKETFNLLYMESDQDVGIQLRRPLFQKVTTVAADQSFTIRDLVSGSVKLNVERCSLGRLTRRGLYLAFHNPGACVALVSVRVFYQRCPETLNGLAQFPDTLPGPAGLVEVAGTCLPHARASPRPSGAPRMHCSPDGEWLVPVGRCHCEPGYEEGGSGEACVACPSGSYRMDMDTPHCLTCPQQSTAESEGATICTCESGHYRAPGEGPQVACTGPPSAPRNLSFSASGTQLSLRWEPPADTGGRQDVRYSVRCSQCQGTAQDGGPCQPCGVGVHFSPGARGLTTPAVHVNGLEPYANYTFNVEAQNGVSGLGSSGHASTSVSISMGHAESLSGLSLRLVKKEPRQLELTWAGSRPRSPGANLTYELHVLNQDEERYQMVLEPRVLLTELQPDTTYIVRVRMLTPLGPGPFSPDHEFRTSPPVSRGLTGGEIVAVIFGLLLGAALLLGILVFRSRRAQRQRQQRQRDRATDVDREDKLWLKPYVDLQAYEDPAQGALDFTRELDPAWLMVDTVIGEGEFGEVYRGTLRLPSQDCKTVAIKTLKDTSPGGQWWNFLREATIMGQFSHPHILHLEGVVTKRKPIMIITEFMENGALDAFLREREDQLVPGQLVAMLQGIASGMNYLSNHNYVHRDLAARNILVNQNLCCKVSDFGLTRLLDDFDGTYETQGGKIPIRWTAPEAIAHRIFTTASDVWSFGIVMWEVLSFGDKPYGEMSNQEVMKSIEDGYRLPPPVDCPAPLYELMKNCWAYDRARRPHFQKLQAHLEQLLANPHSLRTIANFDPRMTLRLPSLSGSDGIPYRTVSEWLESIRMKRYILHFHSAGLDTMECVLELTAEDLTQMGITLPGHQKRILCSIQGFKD

Assay [3] has as its target Serine/threonine-protein kinase PLK1 (Homo sapiens, UniProt P53350).
In assay [4] the target is T2, Long-chain-fatty-acid--CoA ligase 5 (Homo sapiens, UniProt Q9ULC5).
T2 sequence (Q9ULC5 whole entry): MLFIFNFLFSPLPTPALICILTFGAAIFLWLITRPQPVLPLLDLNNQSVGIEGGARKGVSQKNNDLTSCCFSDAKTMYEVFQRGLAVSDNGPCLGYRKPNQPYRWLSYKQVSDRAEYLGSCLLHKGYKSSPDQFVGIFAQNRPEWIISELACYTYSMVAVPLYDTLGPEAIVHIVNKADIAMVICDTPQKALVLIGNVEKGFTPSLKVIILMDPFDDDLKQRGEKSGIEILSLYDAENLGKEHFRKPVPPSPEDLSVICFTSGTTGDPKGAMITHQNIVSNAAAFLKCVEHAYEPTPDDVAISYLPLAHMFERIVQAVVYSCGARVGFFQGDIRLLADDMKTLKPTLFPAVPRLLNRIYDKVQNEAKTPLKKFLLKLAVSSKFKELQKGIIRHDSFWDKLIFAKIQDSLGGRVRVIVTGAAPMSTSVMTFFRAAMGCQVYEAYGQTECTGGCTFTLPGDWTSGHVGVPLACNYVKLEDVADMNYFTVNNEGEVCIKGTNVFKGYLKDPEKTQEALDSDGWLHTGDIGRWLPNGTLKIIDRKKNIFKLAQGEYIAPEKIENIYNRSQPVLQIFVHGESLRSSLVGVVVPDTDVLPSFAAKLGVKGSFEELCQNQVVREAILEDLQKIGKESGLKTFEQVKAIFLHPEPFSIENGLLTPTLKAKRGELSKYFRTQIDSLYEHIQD

In assay [5] the target is Protein kinase C theta type (Homo sapiens, UniProt Q04759).
Sequence of Protein kinase C theta type (Q04759 whole entry): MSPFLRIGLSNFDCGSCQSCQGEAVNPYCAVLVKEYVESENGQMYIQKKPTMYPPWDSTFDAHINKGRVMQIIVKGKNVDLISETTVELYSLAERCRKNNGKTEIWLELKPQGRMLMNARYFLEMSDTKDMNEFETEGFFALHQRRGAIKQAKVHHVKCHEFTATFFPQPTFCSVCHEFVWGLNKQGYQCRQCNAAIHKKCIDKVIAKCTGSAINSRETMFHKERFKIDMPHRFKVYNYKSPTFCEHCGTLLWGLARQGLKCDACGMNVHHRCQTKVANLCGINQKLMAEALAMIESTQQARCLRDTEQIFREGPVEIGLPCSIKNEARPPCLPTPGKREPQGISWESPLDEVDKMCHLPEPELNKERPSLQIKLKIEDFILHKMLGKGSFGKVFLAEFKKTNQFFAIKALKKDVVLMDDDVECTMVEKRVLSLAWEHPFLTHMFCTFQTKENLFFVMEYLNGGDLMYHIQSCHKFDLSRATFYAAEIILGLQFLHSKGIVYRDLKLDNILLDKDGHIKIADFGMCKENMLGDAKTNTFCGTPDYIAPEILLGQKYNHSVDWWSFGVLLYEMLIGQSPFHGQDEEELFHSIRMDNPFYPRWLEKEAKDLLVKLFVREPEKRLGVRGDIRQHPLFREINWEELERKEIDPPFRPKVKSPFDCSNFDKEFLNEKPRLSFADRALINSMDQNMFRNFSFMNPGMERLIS
Assay [6] addresses Serine/threonine-protein kinase 24 (Homo sapiens, UniProt Q9Y6E0).
Assay [7] deals with Dual specificity testis-specific protein kinase 1 (Homo sapiens, UniProt Q15569).
Sequence of Dual specificity testis-specific protein kinase 1 (Q15569 whole entry): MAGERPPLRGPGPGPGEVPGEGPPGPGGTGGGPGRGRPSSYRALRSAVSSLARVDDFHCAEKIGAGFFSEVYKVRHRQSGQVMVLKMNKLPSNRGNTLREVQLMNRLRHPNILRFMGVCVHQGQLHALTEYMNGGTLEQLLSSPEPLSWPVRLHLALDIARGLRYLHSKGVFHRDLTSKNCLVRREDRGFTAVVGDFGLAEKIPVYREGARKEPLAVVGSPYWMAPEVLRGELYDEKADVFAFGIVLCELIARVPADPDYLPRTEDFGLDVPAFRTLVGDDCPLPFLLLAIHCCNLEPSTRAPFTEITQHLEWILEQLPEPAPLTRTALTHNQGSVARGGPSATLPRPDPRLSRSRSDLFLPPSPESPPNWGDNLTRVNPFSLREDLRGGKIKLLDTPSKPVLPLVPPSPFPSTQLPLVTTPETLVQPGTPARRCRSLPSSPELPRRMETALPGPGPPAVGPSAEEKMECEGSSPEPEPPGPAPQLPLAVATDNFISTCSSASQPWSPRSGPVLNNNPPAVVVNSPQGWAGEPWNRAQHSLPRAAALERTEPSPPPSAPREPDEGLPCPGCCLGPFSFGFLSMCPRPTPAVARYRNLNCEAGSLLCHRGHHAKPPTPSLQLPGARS
The target in assay [8] is Phosphatidylethanolamine-binding protein 1 (Homo sapiens, UniProt P30086).
Sequence of Phosphatidylethanolamine-binding protein 1 (P30086 whole entry): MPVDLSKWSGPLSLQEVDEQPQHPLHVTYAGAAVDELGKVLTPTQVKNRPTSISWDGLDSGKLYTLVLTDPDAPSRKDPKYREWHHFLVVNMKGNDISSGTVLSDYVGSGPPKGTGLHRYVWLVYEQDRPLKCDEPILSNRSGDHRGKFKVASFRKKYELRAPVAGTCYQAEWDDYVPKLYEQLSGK
The target in assay [9] is Cell division cycle 7-related protein kinase (Homo sapiens, UniProt O00311).
Assay [10] concerns the target G protein-coupled receptor kinase 6 (Homo sapiens, UniProt P43250).
Assay [11] concerns the target Serine/threonine-protein kinase pim-2 (Homo sapiens, UniProt Q9P1W9).
Assay [12] addresses Hepatocyte growth factor receptor (Homo sapiens, UniProt P08581).
Assay [13] concerns the target Choline-phosphate cytidylyltransferase A (Homo sapiens, UniProt P49585).
Also: in the data inactive means no Kd found up to 30 µM.

Sequence of Serine/threonine-protein kinase 24 (Q9Y6E0 whole entry): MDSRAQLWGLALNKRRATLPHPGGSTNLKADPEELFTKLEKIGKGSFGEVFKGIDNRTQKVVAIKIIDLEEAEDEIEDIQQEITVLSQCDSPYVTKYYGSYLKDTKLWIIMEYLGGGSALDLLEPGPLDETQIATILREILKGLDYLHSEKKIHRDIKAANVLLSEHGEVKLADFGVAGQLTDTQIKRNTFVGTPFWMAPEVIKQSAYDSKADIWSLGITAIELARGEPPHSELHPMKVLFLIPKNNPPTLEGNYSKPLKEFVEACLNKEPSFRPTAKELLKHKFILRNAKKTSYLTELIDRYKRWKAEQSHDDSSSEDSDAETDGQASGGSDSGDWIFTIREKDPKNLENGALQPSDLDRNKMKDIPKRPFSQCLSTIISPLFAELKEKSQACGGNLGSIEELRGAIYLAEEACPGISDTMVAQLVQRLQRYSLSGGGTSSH
Sequence of G protein-coupled receptor kinase 6 (P43250 whole entry): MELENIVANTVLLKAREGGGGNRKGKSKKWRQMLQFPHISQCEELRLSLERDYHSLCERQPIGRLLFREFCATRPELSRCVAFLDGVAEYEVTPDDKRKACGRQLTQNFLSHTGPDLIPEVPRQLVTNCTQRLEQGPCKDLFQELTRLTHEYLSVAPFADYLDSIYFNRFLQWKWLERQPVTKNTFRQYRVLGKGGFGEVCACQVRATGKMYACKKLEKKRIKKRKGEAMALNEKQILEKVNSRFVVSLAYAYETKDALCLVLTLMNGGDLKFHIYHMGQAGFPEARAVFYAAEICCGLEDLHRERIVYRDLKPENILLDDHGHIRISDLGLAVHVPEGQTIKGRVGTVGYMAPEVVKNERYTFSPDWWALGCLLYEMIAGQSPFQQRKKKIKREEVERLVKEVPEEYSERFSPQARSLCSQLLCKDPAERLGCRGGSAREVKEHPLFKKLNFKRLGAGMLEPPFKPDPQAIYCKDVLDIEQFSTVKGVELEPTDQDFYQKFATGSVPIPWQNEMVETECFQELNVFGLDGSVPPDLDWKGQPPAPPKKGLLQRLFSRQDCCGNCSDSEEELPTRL
Sequence of High affinity nerve growth factor receptor (P04629 whole entry): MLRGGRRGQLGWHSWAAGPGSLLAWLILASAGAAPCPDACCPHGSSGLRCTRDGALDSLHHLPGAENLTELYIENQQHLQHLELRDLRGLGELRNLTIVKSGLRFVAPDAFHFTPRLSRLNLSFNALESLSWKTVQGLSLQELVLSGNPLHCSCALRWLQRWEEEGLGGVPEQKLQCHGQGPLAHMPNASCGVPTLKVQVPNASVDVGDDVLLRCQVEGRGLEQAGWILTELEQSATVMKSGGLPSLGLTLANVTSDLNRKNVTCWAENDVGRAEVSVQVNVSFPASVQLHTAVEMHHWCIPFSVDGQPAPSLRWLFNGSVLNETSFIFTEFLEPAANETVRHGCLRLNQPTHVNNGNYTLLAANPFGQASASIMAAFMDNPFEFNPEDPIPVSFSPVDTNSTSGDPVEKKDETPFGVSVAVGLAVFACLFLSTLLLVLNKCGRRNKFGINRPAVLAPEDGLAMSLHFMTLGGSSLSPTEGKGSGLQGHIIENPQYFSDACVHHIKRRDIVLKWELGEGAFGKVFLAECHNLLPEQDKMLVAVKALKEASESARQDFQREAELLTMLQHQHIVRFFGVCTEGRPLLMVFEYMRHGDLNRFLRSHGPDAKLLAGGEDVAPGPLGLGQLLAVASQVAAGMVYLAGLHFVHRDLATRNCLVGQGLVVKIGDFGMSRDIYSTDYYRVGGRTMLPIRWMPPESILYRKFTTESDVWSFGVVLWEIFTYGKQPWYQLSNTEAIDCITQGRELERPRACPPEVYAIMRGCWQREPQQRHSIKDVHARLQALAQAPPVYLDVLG
Sequence of Hepatocyte growth factor receptor (P08581 whole entry): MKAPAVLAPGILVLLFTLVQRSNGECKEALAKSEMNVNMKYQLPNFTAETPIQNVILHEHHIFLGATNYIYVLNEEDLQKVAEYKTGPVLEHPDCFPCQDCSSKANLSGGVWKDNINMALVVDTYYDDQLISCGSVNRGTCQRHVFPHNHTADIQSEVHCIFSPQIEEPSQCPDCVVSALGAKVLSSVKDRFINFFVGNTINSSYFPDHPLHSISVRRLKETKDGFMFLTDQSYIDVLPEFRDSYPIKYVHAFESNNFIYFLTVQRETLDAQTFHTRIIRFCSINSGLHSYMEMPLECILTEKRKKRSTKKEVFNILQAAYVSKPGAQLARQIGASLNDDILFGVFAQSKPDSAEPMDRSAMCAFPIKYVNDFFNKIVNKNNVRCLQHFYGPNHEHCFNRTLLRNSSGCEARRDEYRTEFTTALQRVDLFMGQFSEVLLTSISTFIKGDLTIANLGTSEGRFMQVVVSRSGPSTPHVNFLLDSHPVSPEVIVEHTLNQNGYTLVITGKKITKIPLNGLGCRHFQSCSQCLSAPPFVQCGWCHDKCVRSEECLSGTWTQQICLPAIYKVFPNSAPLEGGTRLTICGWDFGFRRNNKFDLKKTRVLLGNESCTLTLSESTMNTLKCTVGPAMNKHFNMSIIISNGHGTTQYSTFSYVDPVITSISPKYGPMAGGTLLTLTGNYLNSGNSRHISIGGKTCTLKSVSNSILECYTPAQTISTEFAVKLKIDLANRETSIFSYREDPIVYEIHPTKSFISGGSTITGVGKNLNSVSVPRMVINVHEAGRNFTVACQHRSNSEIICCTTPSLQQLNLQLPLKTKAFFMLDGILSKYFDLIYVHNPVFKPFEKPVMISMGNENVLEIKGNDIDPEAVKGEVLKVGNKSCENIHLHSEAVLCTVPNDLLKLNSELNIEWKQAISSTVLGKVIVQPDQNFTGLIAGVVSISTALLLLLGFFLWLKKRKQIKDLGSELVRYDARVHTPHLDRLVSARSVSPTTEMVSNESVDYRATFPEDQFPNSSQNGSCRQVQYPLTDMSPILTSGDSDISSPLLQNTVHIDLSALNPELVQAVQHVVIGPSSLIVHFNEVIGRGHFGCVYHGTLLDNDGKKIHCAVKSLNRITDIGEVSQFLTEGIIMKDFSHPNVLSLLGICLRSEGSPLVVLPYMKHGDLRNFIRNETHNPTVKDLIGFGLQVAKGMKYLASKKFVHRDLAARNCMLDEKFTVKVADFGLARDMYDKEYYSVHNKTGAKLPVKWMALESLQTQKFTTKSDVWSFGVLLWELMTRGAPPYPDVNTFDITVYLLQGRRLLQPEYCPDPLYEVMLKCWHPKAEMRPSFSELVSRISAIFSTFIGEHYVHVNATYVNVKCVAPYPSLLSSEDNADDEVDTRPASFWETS
Sequence of Serine/threonine-protein kinase pim-2 (Q9P1W9 whole entry): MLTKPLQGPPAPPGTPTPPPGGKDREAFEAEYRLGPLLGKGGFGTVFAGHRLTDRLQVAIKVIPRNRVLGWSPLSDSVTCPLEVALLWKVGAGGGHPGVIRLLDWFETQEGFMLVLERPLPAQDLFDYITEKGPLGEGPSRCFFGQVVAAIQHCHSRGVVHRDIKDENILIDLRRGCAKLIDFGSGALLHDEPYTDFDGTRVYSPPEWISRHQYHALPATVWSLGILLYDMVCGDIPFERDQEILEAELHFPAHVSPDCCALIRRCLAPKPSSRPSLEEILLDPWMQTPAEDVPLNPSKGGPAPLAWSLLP

Broadly, the Kd is a measure of binding affinity in units of concentration. With `Cc1ccc(S(=O)(=O)Nc2nc3ccccc3nc2Nc2ccc3nsnc3c2)cc1`, the Kd in [1], in assay [2], in [3], in assay [4], in assay [5] and in assay [6] was > 30 µM (inactive) each time. The Kd in assay [7] is > 30 µM (inactive).

With `CCn1c(=O)c(-c2cc[nH]n2)cc2c(C)nc(N)nc21` [VOXTALISIB], the Kd in assay [1], in [2], in assay [3], in assay [5], in [6] and in assay [8] was > 30 µM (inactive) in each case. The Kd in assay [7] and in assay [9] was > 30 µM (inactive) in each case.

With `CCCS(=O)(=O)Nc1ccc(F)c(C(=O)c2c[nH]c3ncc(-c4ccc(Cl)cc4)cc23)c1F` [VEMURAFENIB], the Kd in assay [1], in assay [2], in assay [10], in assay [3], in assay [4] and in assay [11] was > 30 µM (inactive) throughout. Besides, the Kd in assay [12], in assay [5] and in assay [8] was > 30 µM (inactive) throughout.

For the compound `COc1cc2nccc(Oc3ccc(NC(=O)Nc4cc(C)on4)c(Cl)c3)c2cc1OC` [TIVOZANIB], the Kd in assay [2], in [10], in assay [3], in assay [4], in [11] and in assay [13] was > 30 µM (inactive) each time. Further, the Kd in assay [5] was > 30 µM (inactive); in [6], > 30 µM (inactive); in assay [8], 0.003 µM; in [7], > 30 µM (inactive).

`N[C@@H]1CCCN(c2c(/C=C3\SC(=O)NC3=O)cccc2-c2ccccc2)C1`: the Kd in assay [1], in [3], in [12], in assay [13], in [6] and in [8] was > 30 µM (inactive) each time.

`Cc1cc([C@@H](C)Nc2ccccc2C(=O)O)c2nc(N3CCOCC3)cc(=O)n2c1` [AZD-6482]: the Kd in [1], in assay [2], in assay [10], in assay [3], in assay [4] and in assay [12] was > 30 µM (inactive) throughout. In addition, the Kd in [13], in assay [5], in [6], in [8] and in assay [7] was > 30 µM (inactive) throughout.

With `CN1CCC(CNc2ccc3ncc(-c4cccc(OC(F)(F)F)c4)n3n2)CC1` [SGI-1776], the Kd in [1], in assay [2], in [10], in assay [3], in [4] and in assay [12] was > 30 µM (inactive) each time. For the same compound, the Kd in assay [13], in assay [5], in assay [6], in assay [7] and in [9] was > 30 µM (inactive) in each case.

`CC(C)Nc1cc(-c2c[nH]c(C(=O)N[C@H](CO)c3cccc(Cl)c3)c2)c(Cl)cn1` [ULIXERTINIB]: the Kd in assay [1], in assay [2], in assay [3], in assay [4], in assay [12] and in assay [5] was > 30 µM (inactive) in each case. Further, the Kd in assay [6], in assay [7] and in assay [9] was > 30 µM (inactive) throughout.

Consider `Cc1ccc(-n2nc(C(C)(C)C)cc2NC(=O)NCc2cc(F)ccc2Oc2ccc3c(cnn3CCO)c2)cc1` [PEXMETINIB], for which the dissociation constant Kd is 3.13 µM (active) in assay [1]; 2.64 µM (active) in assay [2]; > 30 µM (inactive) in assay [10]; > 30 µM (inactive) in [3]; > 30 µM (inactive) in assay [4]; > 30 µM (inactive) in assay [11]. For the same compound, the Kd in assay [12], in assay [13], in [5], in assay [6], in assay [8] and in assay [7] was > 30 µM (inactive) in each case. Besides, in assay [9], the Kd was > 30 µM (inactive).

`CCN1CCN(Cc2ccc(-c3cc4c(N[C@H](C)c5ccccc5)ncnc4[nH]3)cc2)CC1` [AEE-788]: the Kd in assay [1], in assay [2], in assay [10], in assay [3], in [4] and in assay [11] was > 30 µM (inactive) throughout. Moreover, the Kd in assay [12], in assay [13], in [5], in [6], in assay [8] and in assay [7] was > 30 µM (inactive) each time. Also, in assay [9], the Kd was > 30 µM (inactive).

For `CC[C@H](Nc1ncnc2[nH]cnc12)c1nc2cccc(F)c2c(=O)n1-c1ccccc1` [IDELALISIB], the Kd in assay [1], in assay [2], in assay [10], in assay [3], in assay [4] and in assay [5] was > 30 µM (inactive) each time. Also, the Kd in assay [6], in [8] and in [7] was > 30 µM (inactive) throughout.

Turning to `O=C(c1ccc(F)c(F)c1Nc1ccc(I)cc1F)N1CC(O)([C@@H]2CCCCN2)C1` [COBIMETINIB], the Kd in assay [1], in [2], in assay [3], in assay [4], in [12] and in assay [13] was > 30 µM (inactive) in each case. For the same compound, the Kd in [5], in assay [6], in [8] and in [7] was > 30 µM (inactive) throughout.

As to `Cc1cc(-c2cc(O)ccc2Cl)cc2nnc(Nc3ccc(OCCN4CCCC4)cc3)nc12`, the Kd in assay [1], in assay [2], in [3], in [4], in [11] and in assay [12] was > 30 µM (inactive) throughout. Further, the Kd in [5], in assay [6], in assay [7] and in [9] was > 30 µM (inactive) throughout.
